# In DBAASP:
# Assays:
# Test in all cases: ≥ marks a high value that may be exact or a test limit, other limits are often not marked, values filed in µg/mL are converted to µM
# [1] = test system: Staphylococcus aureus Newman
# [2] = test system: Salmonella enterica subsp. enterica serovar Typhimurium LT2
# [3] = test system: Staphylococcus aureus RN4220
# [4] = test system: Staphylococcus aureus NCTC 8325-4
# [5] = test system: Klebsiella pneumoniae NCIMB 13218
# [6] = test system: Pseudomonas aeruginosa ATCC 27853
# [7] = test system: Pseudomonas fluorescens NCIMB 9046
# [8] = test system: Cronobacter muytjensii ATCC 51329
# [9] = test system: Cronobacter sakazakii ATCC BAA-894
# [10] = test system: Cronobacter sakazakii DSM 4485
# [11] = test system: Staphylococcus aureus RF122
# [12] = test system: Staphylococcus aureus SA113
# [13] = test system: Cronobacter sakazakii DPC 6440
# [14] = test system: Escherichia coli NCIMB 11843
# [15] = test system: Listeria monocytogenes LO28
# [16] = test system: Staphylococcus epidermidis
# [17] = test system: Pseudomonas aeruginosa 0108
# [18] = test system: Pseudomonas aeruginosa CGMCC 1.860
# [19] = test system: Staphylococcus epidermidis CICC 23664
# [20] = test system: Erwinia amylovora PMV 6076
# [21] = test system: Xanthomonas campestris pv. Vesicatoria 2133-2
# [22] = test system: Pseudomonas syringae pv. syringae EPS 94
# [23] = test system: Escherichia coli ATCC 25922
# [24] = test system: Xanthomonas axonopodis pv. glycines ISBF 327
# [25] = test system: Salmonella enterica subsp. enterica serovar Typhi DMST 22842
# [26] = test system: Staphylococcus epidermidis ATCC 12228
# [27] = test system: Staphylococcus aureus ATCC 25923
structure (smiles),measurement,setting,value
CC(C)C[C@H](NC(=O)[C@H](C)NC(=O)[C@H](CCC(=O)O)NC(=O)[C@H](CC(N)=O)NC(=O)[C@H](CC(C)C)NC(=O)[C@@H](N)C(C)C)C(=O)N[C@@H](CC(C)C)C(=O)N[C@@H](CCCN=C(N)N)C(=O)O [VLNEALLR],MIC,[1],≥ 1250 µM
same,MIC,[2],≥ 1250 µM
same,MIC,[3],≥ 1250 µM
same,MIC,[4],≥ 1250 µM
same,MIC,[5],≥ 2500 µM
same,MIC,[6],32 µM
same,MIC,[7],≥ 2500 µM
same,MIC,[8],≥ 625 µM
same,MIC,[9],≥ 1250 µM
same,MIC,[10],≥ 1250 µM
same,MIC,[11],≥ 1250 µM
same,MIC,[12],≥ 1250 µM
same,MIC,[13],≥ 625 µM
same,MIC,[14],≥ 2500 µM
CC(C)C[C@H](NC(=O)[C@H](CC(C)C)NC(=O)[C@H](CC(N)=O)NC(=O)[C@H](CCC(=O)O)NC(=O)[C@H](CC(N)=O)NC(=O)[C@H](CC(C)C)NC(=O)[C@@H](N)C(C)C)C(=O)N[C@@H](C)C(=O)O [VLNENLLA],MIC,[1],≥ 1250 µM
same,MIC,[2],≥ 1250 µM
same,MIC,[3],≥ 1250 µM
same,MIC,[4],≥ 1250 µM
same,MIC,[5],≥ 2500 µM
same,MIC,[6],32 µM
same,MIC,[7],≥ 2500 µM
same,MIC,[8],≥ 2500 µM
same,MIC,[9],≥ 2500 µM
same,MIC,[10],≥ 2500 µM
same,MIC,[11],≥ 1250 µM
same,MIC,[12],≥ 1250 µM
same,MIC,[13],≥ 2500 µM
same,MIC,[14],≥ 2500 µM
CC[C@H](C)[C@H](NC(=O)[C@H](Cc1c[nH]c2ccccc12)NC(=O)[C@@H]1CCCN1C(=O)[C@H](CCCCN)NC(=O)[C@H](CCSC)NC(=O)[C@H](C)NC(=O)[C@@H](N)CCCCN)C(=O)N[C@@H](CCC(N)=O)C(=O)N1CCC[C@H]1C(=O)N[C@@H](CCCCN)C(=O)N[C@H](C(=O)N[C@@H](CCCCN)C(=O)N[C@H](C(=O)N[C@H](C(=O)N1CCC[C@H]1C(=O)N[C@@H](Cc1ccc(O)cc1)C(=O)N[C@H](C(=O)N[C@@H](CCCN=C(N)N)C(=O)N[C@@H](Cc1ccc(O)cc1)C(=O)N[C@@H](CC(C)C)C(=O)O)C(C)C)[C@@H](C)CC)C(C)C)[C@@H](C)O [KAMKPWIQPKTKVIPYVRYL],MIC,[15],≥ 39.1 µM
same,MIC,[13],≥ 39.1 µM
CC[C@H](C)[C@H](N)C(=O)N[C@@H](CCCCN)C(=O)N[C@@H](CCCCN)C(=O)N[C@H](C(=O)N[C@@H](CC(C)C)C(=O)N[C@@H](CO)C(=O)N[C@@H](CCCCN)C(=O)N[C@H](C(=O)N[C@@H](CCCCN)C(=O)N[C@@H](CCCCN)C(=O)N[C@@H](Cc1c[nH]c2ccccc12)C(=O)N[C@@H](CC(C)C)C(=O)N[C@@H](CCCCN)C(N)=O)[C@@H](C)CC)[C@@H](C)CC [IKKILSKIKKWLK],MIC,[16],12.5 µM
same,MIC,[17],25 µM
same,MIC,[18],12.5 µM
same,MIC,[19],3.12 µM
CC[C@H](C)[C@H](NC(=O)[C@H](CCCCN)NC(=O)[C@H](CCCCN)NC(=O)[C@H](Cc1ccccc1)NC(=O)[C@H](CC(C)C)NC(=O)[C@H](CCCCN)NC(=O)[C@@H](N)CCCCN)C(=O)N[C@@H](CC(C)C)C(=O)N[C@@H](CCCCN)C(=O)N[C@@H](Cc1ccc(O)cc1)C(=O)N[C@@H](CC(C)C)C(=O)N[C@@H](C)C(=O)NCC(=O)N1CCC[C@H]1C(=O)N[C@@H](C)C(=O)N[C@@H](CCCCN)C(=O)N[C@@H](Cc1ccccc1)C(=O)N[C@@H](CC(C)C)C(=O)N[C@@H](Cc1cnc[nH]1)C(=O)N[C@@H](CO)C(=O)N[C@@H](C)C(=O)N[C@@H](CCCCN)C(=O)N[C@@H](CCCCN)C(=O)N[C@@H](CC(=O)O)C(=O)N[C@@H](CCC(=O)O)C(=O)N[C@@H](CC(C)C)C(=O)O [KKLFKKILKYLAGPAKFLHSAKKDEL],MIC,[20],3.54 µM
same,MIC,[21],6.12 µM
same,MIC,[22],8.66 µM
CC[C@H](C)[C@H](NC(=O)[C@H](CCCN=C(N)N)NC(=O)[C@H](CCCCN)NC(=O)[C@H](CC(C)C)NC(=O)[C@H](CO)NC(=O)[C@@H](NC(=O)[C@@H](NC(=O)[C@H](CCCCN)NC(=O)[C@@H](NC(=O)CNC(=O)[C@@H](NC(=O)[C@H](CO)NC(=O)[C@H](CC(C)C)NC(=O)[C@H](Cc1ccccc1)NC(=O)[C@H](CCSC)NC(=O)[C@H](CCCCN)NC(=O)[C@H](CCCCN)NC(=O)[C@@H](NC(=O)[C@H](CCC(N)=O)NC(=O)[C@H](Cc1cnc[nH]1)NC(=O)[C@H](Cc1ccccc1)NC(=O)[C@H](CCCCN)NC(=O)CN)[C@@H](C)CC)C(C)C)C(C)C)C(C)C)[C@@H](C)O)C(=O)N[C@@H](CCC(N)=O)C(=O)N[C@@H](Cc1ccccc1)C(=O)NCC(=O)N[C@@H](CC(=O)O)C(=O)N[C@@H](Cc1ccccc1)C(N)=O [GKFHQIKKMFLSVGVKVTSLKRIQFGDF],MIC,[6],20 µM
same,MIC,[23],20 µM
same,MIC,[24],10 µM
CC(C)[C@H](NC(=O)CNC(=O)[C@@H](N)CC(N)=O)C(=O)N[C@@H](CCC(N)=O)C(=O)N1CCC[C@H]1C(=O)N[C@@H](CCCCN)C(=O)N[C@@H](Cc1ccc(O)cc1)C(=O)N[C@@H](CCCN=C(N)N)C(=O)N[C@@H](Cc1c[nH]c2ccccc12)C(=O)N[C@@H](Cc1c[nH]c2ccccc12)C(=O)N[C@@H](CCCN=C(N)N)C(=O)N[C@@H](Cc1c[nH]c2ccccc12)C(=O)N[C@@H](Cc1c[nH]c2ccccc12)C(=O)N[C@@H](CCCN=C(N)N)C(=O)N[C@@H](CCCN=C(N)N)C(=O)N[C@@H](Cc1c[nH]c2ccccc12)C(=O)N[C@@H](Cc1c[nH]c2ccccc12)C(=O)N[C@@H](Cc1c[nH]c2ccccc12)C(=O)O [NGVQPKYRWWRWWRRWWW],MIC,[25],≥ 33.3 µM
same,MIC,[26],33.3 µM
same,MIC,[27],> 33.3 µM
same,MIC,[23],> 33.3 µM
CC(C)[C@H](NC(=O)CNC(=O)[C@@H](N)CC(N)=O)C(=O)N[C@@H](CCC(N)=O)C(=O)N1CCC[C@H]1C(=O)N[C@@H](CCCCN)C(=O)N[C@@H](Cc1ccc(O)cc1)C(=O)N[C@@H](CCCCN)C(=O)N[C@@H](Cc1c[nH]c2ccccc12)C(=O)N[C@@H](Cc1c[nH]c2ccccc12)C(=O)N[C@@H](CCCCN)C(=O)N[C@@H](Cc1c[nH]c2ccccc12)C(=O)N[C@@H](Cc1c[nH]c2ccccc12)C(=O)N[C@@H](CCCCN)C(=O)N[C@@H](CCCCN)C(=O)N[C@@H](Cc1c[nH]c2ccccc12)C(=O)N[C@@H](Cc1c[nH]c2ccccc12)C(=O)N[C@@H](Cc1c[nH]c2ccccc12)C(N)=O [NGVQPKYKWWKWWKKWWW],MIC,[25],8.78 µM
same,MIC,[26],8.78 µM
same,MIC,[27],> 34.7 µM
same,MIC,[23],4.2 µM
CC[C@H](C)[C@H](N)C(=O)N[C@@H](CCCCN)C(=O)N[C@@H](CCCCN)C(=O)N[C@H](C(=O)N[C@@H](CC(C)C)C(=O)N[C@@H](CO)C(=O)N[C@@H](CCCCN)C(=O)N[C@H](C(=O)N[C@@H](CCCCN)C(=O)N[C@@H](CCCCN)C(=O)N[C@@H](CC(C)C)C(=O)N[C@@H](Cc1c[nH]c2ccccc12)C(=O)N[C@@H](CCCCN)C(N)=O)[C@@H](C)CC)[C@@H](C)CC [IKKILSKIKKLWK],MIC,[16],12.5 µM
same,MIC,[17],25 µM
same,MIC,[18],25 µM
same,MIC,[19],12.5 µM
CC[C@H](C)[C@H](NC(=O)[C@H](Cc1c[nH]c2ccccc12)NC(=O)[C@@H]1CCCN1C(=O)[C@H](CCCCN)NC(=O)[C@H](CCSC)NC(=O)[C@H](C)NC(=O)[C@H](CCCCN)NC(=O)[C@H](CCC(N)=O)NC(=O)[C@H](Cc1cnc[nH]1)NC(=O)[C@H](CCC(N)=O)NC(=O)[C@H](Cc1ccc(O)cc1)NC(=O)[C@@H](N)C(C)C)C(=O)N[C@@H](CCC(N)=O)C(=O)N1CCC[C@H]1C(=O)N[C@@H](CCCCN)C(=O)N[C@H](C(=O)N[C@@H](CCCCN)C(=O)N[C@H](C(=O)N[C@H](C(=O)N1CCC[C@H]1C(=O)N[C@@H](Cc1ccc(O)cc1)C(=O)N[C@H](C(=O)N[C@@H](CCCN=C(N)N)C(=O)N[C@@H](Cc1ccc(O)cc1)C(=O)N[C@@H](CC(C)C)C(=O)O)C(C)C)[C@@H](C)CC)C(C)C)[C@@H](C)O [VYQHQKAMKPWIQPKTKVIPYVRYL],MIC,[15],≥ 78.1 µM
same,MIC,[13],≥ 312 µM
